Marks after values point to notes of the source that are not given here.
Experiments:
Assay in all cases: Multiple-choice digging bioassay, fire ant workers
Type in all cases: in vivo
[1] = tested on: red imported fire ants, Solenopsis invicta Buren
Procedure: (§1) The repellency of the two terpenoids, callicarpenal and intermedeol, against workers of red imported fire ants, Solenopsis invicta Buren, black imported fire ants, Solenopsis rickeri Forel, and a hybrid of these two species was evaluated using multiple-choice digging bioassays (Tables 9 & 10). […] Callicarpenal and intermedeol were compared with octanoic acid, a known fire ant repellant, at the 25.00 ppm level using two-choice digging bioassays (FIGS. 3 and 4).
(§2) Ants: Two Solenopsis invicta colonies were collected in Sharkey County, Mississippi, and two Solenopsis richteri colonies were collected in Granada County, Mississippi. Two colonies of the hybrid (S. invicta×S. richteri) colony were collected in Sunflower County, Mississippi. Fire ant mounds were shoveled and placed in 19-L plastic buckets. The inside wall of the bucket was then coated with baby powder (Cumberland Swan Holdings, Inc., Smyrna, Tenn.) to prevent ant escape. Following the water-drip method developed by Bank et al. (Banks, W. A., et al., Techniques for collecting, rearing, and handling imported fire ants, USDA SEA AATS-S-21 (1981)), ants were separated and then placed in a 44.5×60.0×13.0 cm plastic tray with inside walls coated with Fluon® (Ag Fluoropolymers, Chadds Ford, Pa.). Distilled water and 15% (w/v) sucrose water solution in separated test tubes which were plugged with cotton balls were placed in the trays. Heliocoverpa zea (Boddie) and tobacco budworm, Heliothis virescens (Fabricius) pupae were used as food sources. Inside each tray were one to three 14.0×2.0 cm Petri dishes with 1.0 cm of hardener dental plaster (Castone®; Dentsply International Inc. York, Pa.) on the bottom. Also, in the center of the Petri dish was a 5.0-cm diameter brood chamber. Two 8-mm access holes were made on the wall of the petri dish above the dental plaster. The Petri dish lid was painted black (1302 Gloss Black Spray Enamel, Louisville, Ky.)to block the light. All colonies were maintained at 22-25° C.
(§3) Fire ant workers dug and removed sand from the tube through the entry hole. The differences in the amount of removed sand among treated and control tubes were used to evaluate chemical repellency. Four 2 ml centrifuge tubes were mounted under a 14.0×2.3 cm Petri dish using glue (Arrow Fastener Co., inc., Saddle Brook, N.J.). Tubes were 5.0 cm away from the center of the Petri dish and at equal distance from each other. A 3-mm diameter access hole was drilled for each centrifuge tube, which went through the bottom of the Petri dish and the cap of the tube. The inner side of the Petri dish was coated with Fluon. Three concentrations of a test compound and one control were set up in each apparatus. Six concentrations, including […], 6.25, 12.50, and 25.00 ppm, were tested in two separated bioassays for each species and hybrid; however three more concentrations of callicarpenal, 50.00, 100.00, and […], were tested for S. invicta. Sand (Premium Play Sand, Plassein International, Longview, Tex.) was first sieved through a ™35 U.S.A. standard testing sieve (Thomas Scientific, Swedesboro, N.J.) and then washed with distilled water and dried at 350° C. for 12 h. A 3 ml dichloromethane solution of callicarpenal or intermedeol was mixed with 30 g sand in an aluminum pan. The sand was stirred every 2 min to facilitate the evaporation of the solvent under a fume hood. After dichloromethane evaporated (5 minutes), 1.92 ml distilled water was added and mixed with sand. Sand in the control tube was treated only with dichloromethane. In each tube a mean (±SD) 2.78 g (±0.06 g) wet sand was added. There was no open space inside the tube. Locations of each concentration were randomized. Fifty fire ant workers were introduced into the center of the Petri Dish. The experiment was conducted at 22±0.8° C. (mean±SD) temperature and 45.4%±11.87% relative humidity. After 24 h, sand in each vial was collected, dried at 150° C. for at least 4 hour, and weighed. […]

[2] = tested on: hybrid (S. invicta×S. richteri)
Procedure: as §1, §2, §3

[3] = tested on: black imported fire ants, Solenopsis richteri Forel
Procedure: as §1, §2, §3

CC1=CCC[C@@H]2[C@@](C)(CC=O)[C@H](C)CC[C@@]12C [callicarpenal, 13,14,15,16-tetranorclerod-3-en-12-al]
Sand removed (SE), mean weight of sand removed by ants 24 h after release ([1]; S. invicta colony 1, Exp. 1, 0.75 ppm): 0.19 (0.07) g | Sand removed (SE), mean weight of sand removed by ants 24 h after release ([1]; S. invicta colony 1, Exp. 1, 1.50 ppm): 0.24 (0.15) g | Sand removed (SE), mean weight of sand removed by ants 24 h after release ([1]; S. invicta colony 1, Exp. 1, 3.15 ppm): 0.40 (0.20) g | Sand removed (SE), mean weight of sand removed by ants 24 h after release ([1]; S. invicta colony 1, Exp. 2, 6.25 ppm): 0.21 (0.12) g | Sand removed (SE), mean weight of sand removed by ants 24 h after release ([1]; S. invicta colony 1, Exp. 2, 12.50 ppm): 0.48 (0.19) g | Sand removed (SE), mean weight of sand removed by ants 24 h after release ([1]; S. invicta colony 1, Exp. 2, 25.00 ppm): 0.08 (0.05) g | Sand removed (SE), mean weight of sand removed by ants 24 h after release ([1]; S. invicta colony 1, Exp. 3, 50.00 ppm): 0.04 (0.004)* g | Sand removed (SE), mean weight of sand removed by ants 24 h after release ([1]; S. invicta colony 1, Exp. 3, 100.00 ppm): 0.02 (0.008)* g | Sand removed (SE), mean weight of sand removed by ants 24 h after release ([1]; S. invicta colony 1, Exp. 3, 150.00 ppm): 0.03 (0.007)* g | Sand removed (SE), mean weight of sand removed by ants 24 h after release ([1]; S. invicta colony 2, Exp. 4, 0.75 ppm): 0.32 (0.16) g | Sand removed (SE), mean weight of sand removed by ants 24 h after release ([1]; S. invicta colony 2, Exp. 4, 1.50 ppm): 0.32 (0.15) g | Sand removed (SE), mean weight of sand removed by ants 24 h after release ([1]; S. invicta colony 2, Exp. 4, 3.15 ppm): 0.36 (0.11) g | Sand removed (SE), mean weight of sand removed by ants 24 h after release ([1]; S. invicta colony 2, Exp. 5, 6.25 ppm): 0.24 (0.21) g | Sand removed (SE), mean weight of sand removed by ants 24 h after release ([1]; S. invicta colony 2, Exp. 5, 12.50 ppm): 0.45 (0.18) g | Sand removed (SE), mean weight of sand removed by ants 24 h after release ([1]; S. invicta colony 2, Exp. 5, 25.00 ppm): 0.02 (0.01) g | Sand removed (SE), mean weight of sand removed by ants 24 h after release ([1]; S. invicta colony 2, Exp. 6, 50.00 ppm): 0.02 (0.007)* g | Sand removed (SE), mean weight of sand removed by ants 24 h after release ([1]; S. invicta colony 2, Exp. 6, 100.00 ppm): 0.08 (0.06)* g | Sand removed (SE), mean weight of sand removed by ants 24 h after release ([1]; S. invicta colony 2, Exp. 6, 150.00 ppm): 0.07 (0.03)* g | concentration at which significant repellency was shown ([1]; S. invicta, two colonies, in sand, 24 h): ≥ 50.00 ppm | Sand removed (SE), mean weight of sand removed by ants 24 h after release ([2]; Hybrid colony 1, Exp. 11, 0.75 ppm): 0.66 (0.09) g | Sand removed (SE), mean weight of sand removed by ants 24 h after release ([2]; Hybrid colony 1, Exp. 11, 1.50 ppm): 0.59 (0.10) g | Sand removed (SE), mean weight of sand removed by ants 24 h after release ([2]; Hybrid colony 1, Exp. 11, 3.15 ppm): 0.30 (0.11) g | Sand removed (SE), mean weight of sand removed by ants 24 h after release ([2]; Hybrid colony 1, Exp. 12, 6.25 ppm): 0.53 (0.13)* g | Sand removed (SE), mean weight of sand removed by ants 24 h after release ([2]; Hybrid colony 1, Exp. 12, 12.50 ppm): 0.26 (0.05)* g | Sand removed (SE), mean weight of sand removed by ants 24 h after release ([2]; Hybrid colony 1, Exp. 12, 25.00 ppm): 0.39 (0.14)* g | Sand removed (SE), mean weight of sand removed by ants 24 h after release ([2]; Hybrid colony 2, Exp. 13, 0.75 ppm): 0.53 (0.14) g | Sand removed (SE), mean weight of sand removed by ants 24 h after release ([2]; Hybrid colony 2, Exp. 13, 1.50 ppm): 0.36 (0.09) g | Sand removed (SE), mean weight of sand removed by ants 24 h after release ([2]; Hybrid colony 2, Exp. 13, 3.15 ppm): 0.58 (0.12) g | Sand removed (SE), mean weight of sand removed by ants 24 h after release ([2]; Hybrid colony 2, Exp. 14, 6.25 ppm): 0.47 (0.09)* g | Sand removed (SE), mean weight of sand removed by ants 24 h after release ([2]; Hybrid colony 2, Exp. 14, 12.50 ppm): 0.30 (0.11)* g | Sand removed (SE), mean weight of sand removed by ants 24 h after release ([2]; Hybrid colony 2, Exp. 14, 25.00 ppm): 0.21 (0.11)* g | concentration at which significant repellency was shown ([2]; hybrid, two colonies, in sand, 24 h): ≥ 6.25 ppm | Sand removed (SE), mean weight of sand removed by ants 24 h after release ([3]; S. richteri colony 1, Exp. 7, 0.75 ppm): 0.40 (0.16) g | Sand removed (SE), mean weight of sand removed by ants 24 h after release ([3]; S. richteri colony 1, Exp. 7, 1.50 ppm): 0.28 (0.12) g | Sand removed (SE), mean weight of sand removed by ants 24 h after release ([3]; S. richteri colony 1, Exp. 7, 3.15 ppm): 0.21 (0.13) g | Sand removed (SE), mean weight of sand removed by ants 24 h after release ([3]; S. richteri colony 1, Exp. 8, 6.25 ppm): 0.10 (0.04)* g | Sand removed (SE), mean weight of sand removed by ants 24 h after release ([3]; S. richteri colony 1, Exp. 8, 12.50 ppm): 0.40 (0.17)* g | Sand removed (SE), mean weight of sand removed by ants 24 h after release ([3]; S. richteri colony 1, Exp. 8, 25.00 ppm): 0.08 (0.04)* g | Sand removed (SE), mean weight of sand removed by ants 24 h after release ([3]; S. richteri colony 2, Exp. 9, 0.75 ppm): 0.27 (0.16) g | Sand removed (SE), mean weight of sand removed by ants 24 h after release ([3]; S. richteri colony 2, Exp. 9, 1.50 ppm): 0.85 (0.22) g | Sand removed (SE), mean weight of sand removed by ants 24 h after release ([3]; S. richteri colony 2, Exp. 9, 3.15 ppm): 0.17 (0.11) g | Sand removed (SE), mean weight of sand removed by ants 24 h after release ([3]; S. richteri colony 2, Exp. 10, 6.25 ppm): 0.10 (0.04)* g | Sand removed (SE), mean weight of sand removed by ants 24 h after release ([3]; S. richteri colony 2, Exp. 10, 12.50 ppm): 0.10 (0.04)* g | Sand removed (SE), mean weight of sand removed by ants 24 h after release ([3]; S. richteri colony 2, Exp. 10, 25.00 ppm): 0.01 (0.002)* g

From patent publication US20100190849A1, “Novel Clerodanes and Methods for Repelling Arthropods” (priority 2006, published 2010)
